Experimental data published in ChEMBL document CHEMBL4706747, “Discovery of 5-Nitro-6-thiocyanatopyrimidines as Inhibitors of Cryptococcus neoformans and Cryptococcus gattii” (ACS Med Chem Lett, 2021).
Values joined by “and” are separate entries in the source; they are usually repeats but may differ in a detail not shown here. Identical values can stand only once.

Tests used:
[1] = Cytotoxicity against human HepDE19 cells incubated for 72 hrs by MTS assay; assay type: cell-based
Cryptococcus neoformans [2] = assay: Antifungal activity against Cryptococcus neoformans KN99alpha assessed as fungal growth inhibition after 48 hrs by limiting dilution method; assay type: functional
[3] = Antifungal activity against Cryptococcus gattii RSA-3615 assessed as fungal growth inhibition after 48 hrs by limiting dilution method; assay type: functional, Cryptococcus gattii VGI
Cryptococcus neoformans [4] = assay: Antifungal activity against fluconazole-resistant Cryptococcus neoformans DUMC-158.03 assessed as fungal growth inhibition after 48 hrs by limiting dilution method; assay type: functional
[5] = Selectivity index, ratio of CC50 for human HepDE19 cells to MIC80 for Cryptococcus neoformans KN99alpha; assay type: toxicity; settings: read-out: Selectivity Index
Cryptococcus neoformans [6] = assay: Synergistic antifungal activity against Cryptococcus neoformans KN99alpha assessed as fractional inhibitory concentration index in presence of amphotericin B by checkerboard assay; assay type: functional
Cryptococcus neoformans [7] = assay: Synergistic antifungal activity against Cryptococcus neoformans KN99alpha assessed as fractional inhibitory concentration index in presence of fluconazole by checkerboard assay; assay type: functional

Row | Compound | CC50 at 72 h [1] | MIC80 (Cryptococcus neoformans [2]) | MIC80 [3] | MIC80 (Cryptococcus neoformans [4]) | selectivity ratio [5] | fractional inhibitory concentration index (FICI) (Cryptococcus neoformans [6]) | fractional inhibitory concentration index (FICI) (Cryptococcus neoformans [7])
1 | CC(C)Oc1ncnc(SC#N)c1[N+](=O)[O-] | 23.3 µM and 5.6 µg/mL | 1.9 µM and 0.45 µg/mL | 1.17 µM and 0.27 µg/mL |  |  |  | 
2 | CCCOc1ncnc(SC#N)c1[N+](=O)[O-] | 31.8 µM and 7.64 µg/mL | 3.9 µM and 0.93 µg/mL | 4.68 µM and 1.12 µg/mL |  |  |  | 
3 | N#CSc1ncnc(N2CCCCCC2)c1[N+](=O)[O-] | 17.7 µM and 4.94 µg/mL | 2.34 µM and 0.65 µg/mL | 2.34 µM and 0.65 µg/mL | 2.34 µM and 0.65 µg/mL |  |  | 
4 | N#CSc1ncnc(NCCc2ccccc2)c1[N+](=O)[O-] | 15.1 µM and 4.55 µg/mL | 3.51 µM and 1.05 µg/mL | 2.34 µM and 0.7 µg/mL |  |  |  | 
5 | CC1CCCCN1c1ncnc(SC#N)c1[N+](=O)[O-] (centres undefined) |  | 9.37 µM and 2.61 µg/mL | 1.17 µM and 0.32 µg/mL |  |  |  | 
6 | CC1CC(C)CN(c2ncnc(SC#N)c2[N+](=O)[O-])C1 (centres undefined) | 33.6 µM and 9.86 µg/mL | 2.34 µM and 0.68 µg/mL | 9.37 µM and 2.74 µg/mL |  |  |  | 
7 | CSc1nc(NCc2ccccc2)c([N+](=O)[O-])c(SC#N)n1 | 18.6 µM and 6.2 µg/mL | 4.68 µM and 1.56 µg/mL | 4.68 µM and 1.56 µg/mL |  |  |  | 
8 | Cc1nc(SC#N)c([N+](=O)[O-])c(N2CC(C)CC(C)C2)n1 (centres undefined) |  | 18.8 µM and 5.76 µg/mL | 9.37 µM and 2.88 µg/mL |  |  |  | 
9 | CCOc1nc(C)nc(SC#N)c1[N+](=O)[O-] | 19.8 µM and 4.76 µg/mL | 1.17 µM and 0.27 µg/mL | 0.29 µM and 0.06 µg/mL | 2.34 µM and 0.56 µg/mL |  |  | 
10 | N#CSc1ncnc(NCc2cccc(C(F)(F)F)c2)c1[N+](=O)[O-] | 25.9 µM and 9.21 µg/mL | 9.37 µM and 3.32 µg/mL | 4.68 µM and 1.66 µg/mL |  |  |  | 
11 | CN(c1ncnc(SC#N)c1[N+](=O)[O-])C1CCCCC1 | 25.3 µM and 7.42 µg/mL | 6 µM and 1.76 µg/mL | 4.68 µM and 1.37 µg/mL |  |  |  | 
12 | CNc1nc(C)nc(SC#N)c1[N+](=O)[O-] | > 100 µM and > 22.5 µg/mL | 2.34 µM and 0.52 µg/mL | 1.17 µM and 0.26 µg/mL | 2.34 µM and 0.52 µg/mL |  |  | 
13 | Cc1nc(NC2CC2)c([N+](=O)[O-])c(SC#N)n1 | 12.7 µM and 3.19 µg/mL | 0.6 µM and 0.15 µg/mL | 0.58 µM and 0.14 µg/mL | 1.17 µM and 0.29 µg/mL | 16 | 1.25 | 1.5
14 | N#CSc1ncnc(NC2CCCC2)c1[N+](=O)[O-] |  | 4.9 µM and 1.29 µg/mL | 1.17 µM and 0.3 µg/mL | 2.34 µM and 0.62 µg/mL |  |  | 
15 | N#CSc1ncnc(NC2CCCCC2)c1[N+](=O)[O-] |  | 6 µM and 1.67 µg/mL | 1.17 µM and 0.32 µg/mL |  |  |  | 
16 | Cc1nc(N)c([N+](=O)[O-])c(SC#N)n1 | 24.5 µM and 5.17 µg/mL | 2.34 µM and 0.48 µg/mL | 0.58 µM and 0.12 µg/mL | 2.34 µM and 0.49 µg/mL |  |  | 
17 | CC(C)N(Cc1ccccc1)c1ncnc(SC#N)c1[N+](=O)[O-] |  | > 50 µM and > 16.5 µg/mL | > 25 µM and > 8.23 µg/mL |  |  |  | 
18 | CCN(CC)c1nc(C)nc(SC#N)c1[N+](=O)[O-] |  | 9.37 µM and 2.5 µg/mL | 2.34 µM and 0.62 µg/mL |  |  |  | 
19 | Cc1nc(SC#N)c([N+](=O)[O-])c(N(C)C)n1 |  | 4.68 µM and 1.11 µg/mL | 2.34 µM and 0.55 µg/mL |  |  |  | 
20 | CCC(CC)Nc1ncnc(SC#N)c1[N+](=O)[O-] |  | 18.5 µM and 4.94 µg/mL | > 25 µM and > 6.68 µg/mL |  |  |  | 
21 | CCN(CC)c1ncnc(SC#N)c1[N+](=O)[O-] |  | 9.37 µM and 2.37 µg/mL | 0.14 µM and 0.03 µg/mL |  |  |  | 
22 | CCCOc1nc(C)nc(SC#N)c1[N+](=O)[O-] | 15.8 µM and 4.02 µg/mL | 0.6 µM and 0.15 µg/mL | 1.17 µM and 0.29 µg/mL | 1.17 µM and 0.29 µg/mL |  |  | 
23 | CCC(CC)Nc1nc(C)nc(SC#N)c1[N+](=O)[O-] |  | 9 µM and 2.53 µg/mL | 9.37 µM and 2.63 µg/mL |  |  |  | 
24 | CC(C)Nc1nc(C(F)(F)F)nc(SC#N)c1[N+](=O)[O-] | 42.8 µM and 13.2 µg/mL | 12.2 µM and 4.4 µg/mL | > 25 µM and > 7.68 µg/mL | 18.8 µM and 5.76 µg/mL |  |  | 
25 | N#CSc1ncnc(NCc2ccc(Cl)cc2)c1[N+](=O)[O-] | 22.5 µM and 7.25 µg/mL | 5.85 µM and 1.88 µg/mL | 1.17 µM and 0.37 µg/mL |  |  |  | 
26 | Cc1ccc(CNc2nc(C)nc(SC#N)c2[N+](=O)[O-])cc1 | 14.7 µM and 4.65 µg/mL | 50 µM and 15.8 µg/mL | 1.17 µM and 0.36 µg/mL |  |  |  | 
